Like-named read-outs stand apart in the source and are kept apart here.
What was measured:
[1] = target: T1, first (BD1: amino acids K57-E168) bromodomain of BRD4 (Homo sapiens, UniProt O60885); test: TR-FRET bromodomain binding assay, BRD4 BD1; details: Ki calculated from IC50, probe Kd and probe concentration, read-out: TR-FRET Binding Ki: BRD4 (BDI_K57-E168)
T1 construct: His-tagged first (BD1: amino acids K57-E168)
Method in brief: (§1)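 Displacement of Alexa647-labeled BET-inhibitor probe from His-tagged bromodomain, TR-FRET read-out; buffer 20 mM Na phosphate pH 6.0, 50 mM NaCl, 0.01% Triton X-100. IC50 by 4PL fit; Ki calculated from IC50, probe Kd and probe concentration.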

[2] = target: T2, second (BD2: amino acids E352-E168) bromodomain of BRD4 (Homo sapiens, UniProt O60885); test: TR-FRET bromodomain binding assay, BRD4 BD2; details: Ki calculated from IC50, probe Kd and probe concentration, read-out: TR-FRET Binding Ki: BRD4 (BDII_E352-M457)
T2 construct: protocol
Method in brief: as §1

[3] = TR-FRET assay protocol (A-G, compound concentration range)
[4] = TR-FRET assay protocol (D, E or G) per compound

Ki [1, 3] [nM]	Ki [2, 3] [nM]	Ki [1, 4] [nM]	Ki [2, 4] [nM]	Compound
719	462			CN(C)c1cncc(-c2cc(=O)n(C)nc2-c2ccccc2Oc2ccccc2)c1 [Example 216, 5-[5-(dimethylamino)pyridin-3-yl]-2-methyl-6-(2-phenoxyphenyl)pyridazin-3(2H)-one]
17800	16300			Cn1nc(-c2cc(C(=O)O)ccc2Oc2ccccc2)ccc1=O [Example 15, 3-(1-methyl-6-oxo-1,6-dihydropyridazin-3-yl)-4-phenoxybenzoic acid]
8540	10200			CCN(CC)C(=O)c1cccc(-c2cc(=O)n(C)nc2-c2ccccc2Oc2ccccc2)c1 [Example 160, N,N-diethyl-3-[1-methyl-6-oxo-3-(2-phenoxyphenyl)-1,6-dihydropyridazin-4-yl]benzamide]
567	492			Cn1nc(-c2ccccc2Oc2ccccc2)c(-c2ccc(C(=O)NCCC#N)cc2)cc1=O [Example 165, N-(2-cyanoethyl)-4-[1-methyl-6-oxo-3-(2-phenoxyphenyl)-1,6-dihydropyridazin-4-yl]benzamide]
5510	4750			Cn1nc(-c2ccccc2Oc2ccccc2)c(-c2cccc(C(=O)N3CCCCC3)c2)cc1=O [Example 157, 2-methyl-6-(2-phenoxyphenyl)-5-[3-(piperidin-1-ylcarbonyl)phenyl]pyridazin-3(2H)-one]
412	672			CC(C)Cn1cc(-c2cc(=O)n(C)nc2-c2ccccc2Oc2ccccc2)cn1 [Example 206, 2-methyl-5-[1-(2-methylpropyl)-1H-pyrazol-4-yl]-6-(2-phenoxyphenyl)pyridazin-3(2H)-one]
611	1190			Cn1nc(-c2ccccc2Oc2ccccc2)c(-c2cccc(NS(C)(=O)=O)c2)cc1=O [Example 120, N-{3-[1-methyl-6-oxo-3-(2-phenoxyphenyl)-1,6-dihydropyridazin-4-yl]phenyl}methanesulfonamide]
5450	8420			CNS(=O)(=O)c1ccc(-c2cc(=O)n(C)nc2-c2ccccc2Oc2ccccc2)cc1 [Example 159, N-methyl-4-[1-methyl-6-oxo-3-(2-phenoxyphenyl)-1,6-dihydropyridazin-4-yl]benzenesulfonamide]
> 13000	3240			Cn1nc(-c2ccccc2Oc2ccccc2)c(-c2ccc(Cc3ccccc3)cc2)cc1=O [Example 93, 5-(4-benzylphenyl)-2-methyl-6-(2-phenoxyphenyl)pyridazin-3(2H)-one]
		493	281	CCOc1cc(=O)n(C)cc1-c1cc(NS(=O)(=O)c2ccc(C(C)(C)C)cc2)ccc1Oc1ccc(F)cc1F [Example 416, 4-tert-butyl-N-[4-(2,4-difluorophenoxy)-3-(4-ethoxy-1-methyl-6-oxo-1,6-dihydropyridin-3-yl)phenyl]benzenesulfonamide]
> 1520	879			Cn1nc(-c2ccccc2Oc2ccccc2)c(-c2cccc(N3CCOCC3)c2)cc1=O [Example 139, 2-methyl-5-[3-(morpholin-4-yl)phenyl]-6-(2-phenoxyphenyl)pyridazin-3(2H)-one]
1020	1960			Cc1c(-c2cc(=O)n(C)nc2-c2ccccc2Oc2ccccc2)cnn1C [Example 204, 5-(1,5-dimethyl-1H-pyrazol-4-yl)-2-methyl-6-(2-phenoxyphenyl)pyridazin-3(2H)-one]
1080	670			Cc1ccc(-c2cc(=O)n(C)nc2-c2ccccc2Oc2ccccc2)cn1 [Example 196, 2-methyl-5-(6-methylpyridin-3-yl)-6-(2-phenoxyphenyl)pyridazin-3(2H)-one]
		203	30.9	CCS(=O)(=O)c1ccc(Oc2ccc(F)cc2F)c(-c2cn(C)c(=O)cc2OCC(F)(F)F)c1 [Example 398]

The next lines start with the compound.

Compound	Ki [1, 3] [nM]	Ki [2, 3] [nM]	Ki [1, 4] [nM]	Ki [2, 4] [nM]
Cn1nc(-c2ccccc2Oc2ccccc2)c(-c2cc3ccccc3n2C)cc1=O [Example 214, 2-methyl-5-(1-methyl-1H-indol-2-yl)-6-(2-phenoxyphenyl)pyridazin-3(2H)-one]	> 13000	10400		
CC(C)COc1cccc(-c2cc(=O)n(C)nc2-c2ccccc2Oc2ccccc2)c1 [Example 110, 2-methyl-5-[3-(2-methylpropoxy)phenyl]-6-(2-phenoxyphenyl)pyridazin-3(2H)-one]	> 13000	13500		
CCOC(=O)N1CCC(Oc2ccc(NS(=O)(=O)CC)cc2-c2cn(C)c(=O)cc2OCC)CC1 [Example 388, ethyl 4-{2-(4-ethoxy-1-methyl-6-oxo-1,6-dihydropyridin-3-yl)-4-[(ethylsulfonyl)amino]phenoxy}piperidine-1-carboxylate]			766	1420
CCOc1cc(=O)n(C)cc1-c1cc(NC(=O)c2cnc(C)cn2)ccc1Oc1ccc(F)cc1F [Example 414, N-[4-(2,4-difluorophenoxy)-3-(4-ethoxy-1-methyl-6-oxo-1,6-dihydropyridin-3-yl)phenyl]-5-methylpyrazine-2-carboxamide]			61.4	38.9
Cn1nc(-c2ccccc2Oc2ccccc2)c(-c2ccc(C(=O)N3CCOCC3)cc2)cc1=O [Example 147, 2-methyl-5-[4-(morpholin-4-ylcarbonyl)phenyl]-6-(2-phenoxyphenyl)pyridazin-3(2H)-one]	260	168		
Cn1nc(-c2ccccc2Oc2ccccc2)c(-c2cncc3ccccc23)cc1=O [Example 118, 5-(isoquinolin-4-yl)-2-methyl-6-(2-phenoxyphenyl)pyridazin-3(2H)-one]	> 13000	17200		
COc1cc(=O)n(C)nc1-c1ccccc1OC1CCCCC1 [Example 39, 6-[2-(cyclohexyloxy)phenyl]-5-methoxy-2-methylpyridazin-3(2H)-one]	3540	14600		
COc1cc(=O)n(C)nc1-c1ccccc1OCc1ccc2[nH]ncc2c1 [Example 41, 6-[2-(1H-indazol-5-ylmethoxy)phenyl]-5-methoxy-2-methylpyridazin-3(2H)-one]	> 12900	> 20300		
Cn1nc(-c2ccccc2Oc2ccccc2)c(C2=CCNCC2)cc1=O [Example 82, 2-methyl-6-(2-phenoxyphenyl)-5-(1,2,3,6-tetrahydropyridin-4-yl)pyridazin-3(2H)-one]	4070	2480		
CCOc1cc(=O)n(C)cc1-c1cc(NCC(C)(C)C)ccc1Oc1ccc(F)cc1F [Example 305, 5-{2-(2,4-difluorophenoxy)-5-[(2,2-dimethylpropyl)amino]phenyl}-4-ethoxy-1-methylpyridin-2(1H)-one]	557	271		
Cn1nc(-c2ccccc2Oc2ccccc2)c(-c2ccc3nsnc3c2)cc1=O [Example 137, 5-(2,1,3-benzothiadiazol-5-yl)-2-methyl-6-(2-phenoxyphenyl)pyridazin-3(2H)-one]	3260	1170		
CN(C)c1cccc(-c2cc(=O)n(C)nc2-c2ccccc2Oc2ccccc2)c1 [Example 209, 5-[3-(dimethylamino)phenyl]-2-methyl-6-(2-phenoxyphenyl)pyridazin-3(2H)-one]	> 5490	8480		
Cn1nc(-c2cc([N+](=O)[O-])ccc2Oc2ccccc2)ccc1=O [Example 9, 2-methyl-6-(5-nitro-2-phenoxyphenyl)pyridazin-3(2H)-one]	10500	9260		
Cn1nc(-c2ccccc2Oc2ccccc2)c(-c2ccc(N3CCOCC3)nc2)cc1=O [Example 179, 2-methyl-5-[6-(morpholin-4-yl)pyridin-3-yl]-6-(2-phenoxyphenyl)pyridazin-3(2H)-one]	923	488		
COC(=O)COc1cc(=O)n(C)nc1-c1ccccc1Oc1ccccc1 [Example 38, methyl{[1-methyl-6-oxo-3-(2-phenoxyphenyl)-1,6-dihydropyridazin-4-yl]oxy}acetate]	6350	6830		
COCCNC(=O)c1ccc(-c2cc(=O)n(C)nc2-c2ccccc2Oc2ccccc2)cc1 [Example 173, N-(2-methoxyethyl)-4-[1-methyl-6-oxo-3-(2-phenoxyphenyl)-1,6-dihydropyridazin-4-yl]benzamide]	805	545		
Cn1nc(-c2ccccc2Oc2ccccc2)c(-c2cncc(C(=O)NC3CC3)c2)cc1=O [Example 144, N-cyclopropyl-5-[1-methyl-6-oxo-3-(2-phenoxyphenyl)-1,6-dihydropyridazin-4-yl]pyridine-3-carboxamide]	> 2380	> 3370		
Cn1nc(-c2ccccc2Oc2ccccc2)c(-c2cncc(C(=O)NC3CCCC3)c2)cc1=O [Example 145, N-cyclopentyl-5-[1-methyl-6-oxo-3-(2-phenoxyphenyl)-1,6-dihydropyridazin-4-yl]pyridine-3-carboxamide]	> 13000	10200		
